Measurements from ChEMBL document CHEMBL1156471, “Targeting host cell furin proprotein convertases as a therapeutic strategy against bacterial toxins and viral pathogens” (J Biol Chem, 2007).
Activity calls are given as the source filed them. The calls are words filed in the database; no cut-off is given here. Non-standard residues stand in square brackets, D forms with d. Residues, ends and D or L forms follow the SMILES beside them. βAla = NCCC(=O)O

Columns and labels:
[1] = system: U-251; assay: Protection against anthrax PA63-lethal toxin complex-induced cytotoxicity in human U251 cells at 20 uM at 400 ng/ml by MTT test; format: cell-based
[2] = system: Bacillus anthracis; assay: Protection against Bacillus anthracis Sterne spores infected A/J mouse assessed as survival at 12.5 mg/kg, ip administered once daily for 6 days; format: functional; conditions: route intraperitoneal
[3] = system: Bacillus anthracis; assay: Protection against Bacillus anthracis Sterne spores infected A/J mouse at 12.5 mg/kg, ip administered once daily for 6 days; format: functional; conditions: route intraperitoneal
[4] = system: Bacillus anthracis; assay: Protection against Bacillus anthracis Sterne spores infected A/J mouse assessed as survival at 25 mg/kg, sc administered daily after 4 days post infection; format: functional; conditions: route subcutaneous
[5] = target: Proprotein convertase subtilisin/kexin type 5 (Homo sapiens, UniProt Q92824)
[6] = target: T1, Proprotein convertase subtilisin/kexin type 6 (Rattus norvegicus, UniProt Q63415)
T1 sequence (Q63415 whole entry): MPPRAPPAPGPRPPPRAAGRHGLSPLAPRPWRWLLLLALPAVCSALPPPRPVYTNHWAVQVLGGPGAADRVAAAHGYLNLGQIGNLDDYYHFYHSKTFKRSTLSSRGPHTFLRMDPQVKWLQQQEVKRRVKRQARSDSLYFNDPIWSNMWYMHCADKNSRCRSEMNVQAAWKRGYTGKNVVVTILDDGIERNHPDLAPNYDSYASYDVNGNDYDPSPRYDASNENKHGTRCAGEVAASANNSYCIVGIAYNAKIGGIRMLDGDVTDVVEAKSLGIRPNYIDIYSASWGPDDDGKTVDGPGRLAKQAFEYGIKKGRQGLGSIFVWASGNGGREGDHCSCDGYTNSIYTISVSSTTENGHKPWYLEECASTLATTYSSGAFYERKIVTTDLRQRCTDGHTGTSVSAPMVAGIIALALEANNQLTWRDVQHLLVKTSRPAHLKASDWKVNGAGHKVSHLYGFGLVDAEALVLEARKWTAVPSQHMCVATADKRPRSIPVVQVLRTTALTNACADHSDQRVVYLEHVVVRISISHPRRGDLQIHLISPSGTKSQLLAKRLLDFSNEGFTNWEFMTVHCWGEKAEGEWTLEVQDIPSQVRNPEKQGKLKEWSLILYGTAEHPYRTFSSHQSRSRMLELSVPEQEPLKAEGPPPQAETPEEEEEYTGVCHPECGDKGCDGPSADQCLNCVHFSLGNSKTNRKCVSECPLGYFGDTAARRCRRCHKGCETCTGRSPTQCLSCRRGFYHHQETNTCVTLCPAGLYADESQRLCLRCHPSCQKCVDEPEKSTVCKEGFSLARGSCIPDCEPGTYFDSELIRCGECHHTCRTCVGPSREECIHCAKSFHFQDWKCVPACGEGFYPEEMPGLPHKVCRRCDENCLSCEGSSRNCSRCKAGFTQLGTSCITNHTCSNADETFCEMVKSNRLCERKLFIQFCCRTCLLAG

[7] = target: T2, Proprotein convertase subtilisin/kexin type 7 (Homo sapiens, UniProt Q16549)
T2 sequence (Q16549 whole entry): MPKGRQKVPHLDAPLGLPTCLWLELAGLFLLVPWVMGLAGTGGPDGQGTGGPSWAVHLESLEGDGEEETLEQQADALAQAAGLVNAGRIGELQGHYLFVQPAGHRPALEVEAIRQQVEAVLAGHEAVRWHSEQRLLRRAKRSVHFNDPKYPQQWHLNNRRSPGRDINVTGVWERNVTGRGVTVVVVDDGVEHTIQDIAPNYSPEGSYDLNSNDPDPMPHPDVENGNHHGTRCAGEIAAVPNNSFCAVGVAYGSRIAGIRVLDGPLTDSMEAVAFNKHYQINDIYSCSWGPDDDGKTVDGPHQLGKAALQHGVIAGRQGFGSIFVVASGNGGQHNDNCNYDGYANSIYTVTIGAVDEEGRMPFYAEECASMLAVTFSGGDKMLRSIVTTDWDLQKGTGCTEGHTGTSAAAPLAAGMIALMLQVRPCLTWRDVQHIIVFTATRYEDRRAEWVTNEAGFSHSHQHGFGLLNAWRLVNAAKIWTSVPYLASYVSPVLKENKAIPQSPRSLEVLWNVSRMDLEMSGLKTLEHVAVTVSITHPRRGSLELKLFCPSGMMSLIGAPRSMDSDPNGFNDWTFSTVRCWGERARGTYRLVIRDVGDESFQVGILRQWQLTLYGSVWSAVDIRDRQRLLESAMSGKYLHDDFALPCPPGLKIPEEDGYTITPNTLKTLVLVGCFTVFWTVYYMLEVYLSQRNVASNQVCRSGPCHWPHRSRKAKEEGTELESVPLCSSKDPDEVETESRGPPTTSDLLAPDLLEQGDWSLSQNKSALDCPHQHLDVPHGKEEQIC

[8] = target: T3, Proprotein convertase subtilisin/kexin type 4 (Homo sapiens, UniProt Q6UW60)
T3 sequence (Q6UW60 whole entry): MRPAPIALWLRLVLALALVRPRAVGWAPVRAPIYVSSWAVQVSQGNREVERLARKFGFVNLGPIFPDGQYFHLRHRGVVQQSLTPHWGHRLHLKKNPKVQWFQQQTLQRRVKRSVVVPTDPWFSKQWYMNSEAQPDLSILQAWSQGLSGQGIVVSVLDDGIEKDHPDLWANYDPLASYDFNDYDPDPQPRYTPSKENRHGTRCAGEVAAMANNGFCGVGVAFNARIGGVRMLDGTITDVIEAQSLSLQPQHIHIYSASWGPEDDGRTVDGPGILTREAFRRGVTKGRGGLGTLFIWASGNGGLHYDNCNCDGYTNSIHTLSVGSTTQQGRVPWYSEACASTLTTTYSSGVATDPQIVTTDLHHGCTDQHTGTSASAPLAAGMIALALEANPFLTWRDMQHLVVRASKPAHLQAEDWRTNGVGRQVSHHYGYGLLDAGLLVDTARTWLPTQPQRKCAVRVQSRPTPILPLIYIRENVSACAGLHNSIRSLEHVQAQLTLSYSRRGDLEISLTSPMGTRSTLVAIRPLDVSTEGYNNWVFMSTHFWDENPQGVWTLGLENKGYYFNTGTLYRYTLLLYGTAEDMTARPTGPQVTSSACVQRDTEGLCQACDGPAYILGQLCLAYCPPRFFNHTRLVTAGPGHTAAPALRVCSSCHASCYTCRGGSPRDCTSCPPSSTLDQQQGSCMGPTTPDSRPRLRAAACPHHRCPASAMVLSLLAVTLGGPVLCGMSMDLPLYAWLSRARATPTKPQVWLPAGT

[9] = target: T4, Furin (Homo sapiens, UniProt P09958)
[10] = system: RAW264.7; assay: Cytotoxicity against mouse RAW264.7 cells =< 0.5 mM after 4 hrs by MTT assay; format: cell-based; conditions: raw264.7, 4 h
[11] = target: T4, Furin; assay: Inhibition of furin-mediated Pseudomonas exotoxin A proteolysis by peptide cleavage reaction
[12] = system: U-251; assay: Inhibition of proprotein convertase-mediated anthrax protective antigen-83 processing in human U251 cells at 20 uM by Western blot; format: cell-based; conditions: Bacillus anthracis
[13] = system: U-251; assay: Inhibition of proprotein convertase-dependent delivery of PA63-lethal toxin complex into cytosol in human U251 cells at 20 uM; format: cell-based; conditions: Bacillus anthracis
[14] = system: Mus musculus; assay: Protection against Pseudomonas exotoxin A-induced toxicity in C57BL/6 mouse assessed as survival at 12.5 mg/kg, ip once daily administered 1 hr prior to toxin challenge; format: functional; conditions: C57BL/6, ip, route intraperitoneal

Chain of Proprotein convertase subtilisin/kexin type 5 (Q92824 whole entry): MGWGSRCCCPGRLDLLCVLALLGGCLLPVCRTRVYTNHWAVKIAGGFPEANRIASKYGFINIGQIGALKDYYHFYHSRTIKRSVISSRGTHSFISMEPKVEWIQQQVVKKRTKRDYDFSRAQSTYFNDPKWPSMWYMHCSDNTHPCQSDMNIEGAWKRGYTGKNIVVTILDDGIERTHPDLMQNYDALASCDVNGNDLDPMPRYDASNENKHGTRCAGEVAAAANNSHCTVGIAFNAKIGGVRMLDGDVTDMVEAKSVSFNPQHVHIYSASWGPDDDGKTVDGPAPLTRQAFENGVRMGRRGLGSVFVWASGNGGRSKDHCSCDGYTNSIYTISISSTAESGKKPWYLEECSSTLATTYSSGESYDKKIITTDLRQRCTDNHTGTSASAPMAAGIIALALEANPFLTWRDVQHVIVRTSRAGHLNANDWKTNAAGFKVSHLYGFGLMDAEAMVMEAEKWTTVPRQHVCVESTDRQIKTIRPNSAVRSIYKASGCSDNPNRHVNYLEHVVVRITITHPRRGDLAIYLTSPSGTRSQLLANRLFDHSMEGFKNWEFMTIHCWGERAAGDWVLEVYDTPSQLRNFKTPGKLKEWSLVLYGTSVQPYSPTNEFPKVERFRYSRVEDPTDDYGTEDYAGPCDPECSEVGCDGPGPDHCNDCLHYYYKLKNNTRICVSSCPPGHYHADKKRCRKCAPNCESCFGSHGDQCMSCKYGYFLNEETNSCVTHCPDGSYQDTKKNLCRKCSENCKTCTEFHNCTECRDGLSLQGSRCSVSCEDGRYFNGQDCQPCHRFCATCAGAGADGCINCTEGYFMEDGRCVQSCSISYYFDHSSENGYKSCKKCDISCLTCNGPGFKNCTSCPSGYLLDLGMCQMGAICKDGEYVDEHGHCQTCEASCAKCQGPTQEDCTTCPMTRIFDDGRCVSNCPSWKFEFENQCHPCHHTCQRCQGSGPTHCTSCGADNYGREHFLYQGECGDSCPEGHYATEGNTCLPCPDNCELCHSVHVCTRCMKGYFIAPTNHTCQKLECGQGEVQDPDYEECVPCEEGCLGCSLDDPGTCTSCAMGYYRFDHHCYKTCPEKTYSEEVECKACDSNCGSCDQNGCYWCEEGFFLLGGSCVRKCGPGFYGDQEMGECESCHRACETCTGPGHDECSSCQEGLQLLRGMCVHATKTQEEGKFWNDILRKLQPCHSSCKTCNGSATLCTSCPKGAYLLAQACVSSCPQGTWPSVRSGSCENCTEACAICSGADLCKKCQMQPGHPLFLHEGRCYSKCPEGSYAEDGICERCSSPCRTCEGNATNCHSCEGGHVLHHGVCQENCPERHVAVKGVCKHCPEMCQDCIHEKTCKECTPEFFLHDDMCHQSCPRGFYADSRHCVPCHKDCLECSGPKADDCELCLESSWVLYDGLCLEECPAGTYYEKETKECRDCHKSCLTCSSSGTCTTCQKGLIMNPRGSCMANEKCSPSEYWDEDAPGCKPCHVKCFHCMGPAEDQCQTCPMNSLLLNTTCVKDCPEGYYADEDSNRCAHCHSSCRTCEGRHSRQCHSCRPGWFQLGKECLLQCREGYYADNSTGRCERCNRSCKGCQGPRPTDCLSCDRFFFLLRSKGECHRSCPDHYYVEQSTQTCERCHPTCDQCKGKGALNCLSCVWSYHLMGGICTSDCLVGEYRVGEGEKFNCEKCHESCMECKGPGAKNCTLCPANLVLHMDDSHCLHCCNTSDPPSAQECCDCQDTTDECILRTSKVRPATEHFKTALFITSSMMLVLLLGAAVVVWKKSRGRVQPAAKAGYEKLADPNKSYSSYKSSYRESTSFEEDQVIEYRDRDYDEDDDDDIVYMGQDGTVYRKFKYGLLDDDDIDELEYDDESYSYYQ
T4 sequence (P09958 whole entry): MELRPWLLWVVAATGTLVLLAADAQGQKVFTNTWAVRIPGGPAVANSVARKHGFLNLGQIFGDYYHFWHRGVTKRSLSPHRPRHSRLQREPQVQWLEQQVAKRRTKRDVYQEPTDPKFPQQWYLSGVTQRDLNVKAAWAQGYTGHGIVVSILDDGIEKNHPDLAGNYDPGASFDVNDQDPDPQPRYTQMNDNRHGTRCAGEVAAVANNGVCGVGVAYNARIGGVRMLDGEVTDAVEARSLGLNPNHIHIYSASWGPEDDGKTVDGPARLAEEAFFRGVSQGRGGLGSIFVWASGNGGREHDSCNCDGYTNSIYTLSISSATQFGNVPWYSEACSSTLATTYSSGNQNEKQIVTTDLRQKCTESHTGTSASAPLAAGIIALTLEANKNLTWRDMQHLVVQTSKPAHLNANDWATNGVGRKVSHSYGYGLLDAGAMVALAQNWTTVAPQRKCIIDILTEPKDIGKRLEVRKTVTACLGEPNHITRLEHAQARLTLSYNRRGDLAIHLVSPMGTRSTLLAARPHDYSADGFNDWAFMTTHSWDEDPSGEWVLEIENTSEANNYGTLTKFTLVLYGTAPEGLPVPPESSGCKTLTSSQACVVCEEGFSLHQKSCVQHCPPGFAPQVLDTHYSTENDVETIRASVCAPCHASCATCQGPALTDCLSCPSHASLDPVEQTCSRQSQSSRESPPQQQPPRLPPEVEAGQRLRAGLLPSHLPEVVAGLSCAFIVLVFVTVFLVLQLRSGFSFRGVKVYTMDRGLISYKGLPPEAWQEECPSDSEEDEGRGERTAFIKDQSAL

Compound	Ki [5] [µM]	Ki [6] [µM]	Ki [7] [µM]	Ki [8] [µM]	Ki [9] [µM]	further results
CNC(=O)[C@H](Cc1c[nH]c2ccccc12)NC(=O)[C@@H](CC(=O)NO)CC(C)C	–	–	–	–	–	Activity [1]: Active
C[C@H](NC(=O)[C@H](CCCNC(=N)N)NC(=O)[C@@H]1CCCN1C(=O)[C@@H](NC(=O)CCN)[C@@H](C)O)C(=O)N[C@@H](CCCNC(=N)N)C(=O)N[C@@H](CCCNC(=N)N)C(=O)N[C@@H](CCCNC(=N)N)C(=O)N[C@@H](CCCCN)C(=O)N[C@@H](CCCCN)C(=O)N[C@@H](CCCNC(=N)N)C(=O)N[C@H](C(N)=O)[C@@H](C)O (H-[βAla]TPRARRRKKRT-NH2)	–	–	–	–	–	Survival [2]: 6.63 days; Activity [3]: 40%
O=C(O)c1cn(C2CC2)c2cc(N3CCNCC3)c(F)cc2c1=O [CIPROFLOXACIN]	–	–	–	–	–	Survival [4]: 6 days
H-TPQRARRRKKRF-OH	0.806	0.602	1.13	0.772	0.038	–
H-TPQRARRRKKRT-OH	0.188	0.296	0.206	0.515	0.033	–
H-TPQRARRRKKRW-OH	0.433	0.192	0.172	0.952	0.034	–
H-TPQRARRRKKRY-OH	0.649	1.02	1.22	0.624	0.047	–
H-TPRARRRKKRI-NH2	0.492	0.267	0.135	0.562	0.03	–
H-TPRARRRKKRT-NH2	0.232	0.162	0.135	0.441	–	Activity [10]: Non-toxic; Activity [1]: Active; Activity [11]: Active; Activity [12]: Active; Activity [13]: Active; survival at 12.5 mg/kg [14]: 60%
